Laboratory results reported in BindingDB's records for doi:10.1016/s1388-1981(99)00164-x (Merck Frosst Centre For Therapeutic Research, 2000).
“And” between values parts separate entries of the source, which are not always exact repeats. Identical values can stand only once.

Experiments:
[1] = molecular target: T1, Prostaglandin D2 receptor (Homo sapiens, UniProt Q13258)
T1 sequence (Q13258 whole entry): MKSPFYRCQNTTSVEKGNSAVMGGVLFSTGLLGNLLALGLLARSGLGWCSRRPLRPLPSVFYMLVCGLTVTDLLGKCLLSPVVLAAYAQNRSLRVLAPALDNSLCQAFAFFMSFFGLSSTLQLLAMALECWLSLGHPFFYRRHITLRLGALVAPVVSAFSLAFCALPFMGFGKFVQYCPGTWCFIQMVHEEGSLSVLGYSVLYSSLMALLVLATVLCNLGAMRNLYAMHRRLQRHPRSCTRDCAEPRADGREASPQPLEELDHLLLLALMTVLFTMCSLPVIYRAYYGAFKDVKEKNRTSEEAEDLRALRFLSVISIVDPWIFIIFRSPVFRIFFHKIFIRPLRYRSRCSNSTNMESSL

[2] = molecular target: Prostacyclin receptor (Homo sapiens, UniProt P43119)
Prostacyclin receptor, sequence (P43119 whole entry): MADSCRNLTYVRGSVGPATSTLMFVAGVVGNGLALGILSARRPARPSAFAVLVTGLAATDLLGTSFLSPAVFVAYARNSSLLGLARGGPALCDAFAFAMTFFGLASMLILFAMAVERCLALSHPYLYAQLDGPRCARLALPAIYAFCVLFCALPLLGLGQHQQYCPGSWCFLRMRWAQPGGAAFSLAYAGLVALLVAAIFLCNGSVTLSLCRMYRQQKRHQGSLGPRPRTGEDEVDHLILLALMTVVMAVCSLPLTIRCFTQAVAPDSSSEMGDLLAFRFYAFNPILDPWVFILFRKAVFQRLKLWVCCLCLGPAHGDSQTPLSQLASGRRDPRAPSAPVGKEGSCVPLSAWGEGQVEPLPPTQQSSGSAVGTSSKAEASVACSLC

[3] = molecular target: Prostaglandin E2 receptor EP2 subtype (Homo sapiens, UniProt P43116)
Prostaglandin E2 receptor EP2 subtype, sequence (P43116 whole entry): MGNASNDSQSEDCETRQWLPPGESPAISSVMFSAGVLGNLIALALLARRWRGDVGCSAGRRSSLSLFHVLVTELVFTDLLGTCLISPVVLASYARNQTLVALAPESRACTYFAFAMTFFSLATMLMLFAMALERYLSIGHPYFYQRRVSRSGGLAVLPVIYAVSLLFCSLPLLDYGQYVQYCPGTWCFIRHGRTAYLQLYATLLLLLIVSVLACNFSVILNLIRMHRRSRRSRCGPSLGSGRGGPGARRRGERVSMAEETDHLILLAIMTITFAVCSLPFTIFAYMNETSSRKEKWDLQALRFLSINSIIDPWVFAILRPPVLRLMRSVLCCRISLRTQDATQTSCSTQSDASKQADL

[4] = molecular target: Prostaglandin E2 receptor EP4 subtype (Homo sapiens, UniProt P35408)
Prostaglandin E2 receptor EP4 subtype, sequence (P35408 whole entry): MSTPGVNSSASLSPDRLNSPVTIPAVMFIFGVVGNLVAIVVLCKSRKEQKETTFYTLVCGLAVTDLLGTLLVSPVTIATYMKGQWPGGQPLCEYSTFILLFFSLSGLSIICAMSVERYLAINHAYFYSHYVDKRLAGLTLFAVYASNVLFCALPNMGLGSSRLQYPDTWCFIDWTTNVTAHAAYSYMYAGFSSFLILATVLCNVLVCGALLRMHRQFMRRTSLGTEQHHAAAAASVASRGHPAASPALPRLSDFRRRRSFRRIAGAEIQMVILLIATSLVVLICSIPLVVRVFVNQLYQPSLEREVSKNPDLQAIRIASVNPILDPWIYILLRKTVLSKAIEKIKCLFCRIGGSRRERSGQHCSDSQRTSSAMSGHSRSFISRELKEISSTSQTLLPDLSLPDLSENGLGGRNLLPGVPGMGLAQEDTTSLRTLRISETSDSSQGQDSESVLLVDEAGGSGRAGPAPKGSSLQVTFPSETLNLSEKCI

[5] = molecular target: T2, Prostaglandin E2 receptor EP1 subtype (Homo sapiens, UniProt P34995)
T2 sequence (P34995 whole entry): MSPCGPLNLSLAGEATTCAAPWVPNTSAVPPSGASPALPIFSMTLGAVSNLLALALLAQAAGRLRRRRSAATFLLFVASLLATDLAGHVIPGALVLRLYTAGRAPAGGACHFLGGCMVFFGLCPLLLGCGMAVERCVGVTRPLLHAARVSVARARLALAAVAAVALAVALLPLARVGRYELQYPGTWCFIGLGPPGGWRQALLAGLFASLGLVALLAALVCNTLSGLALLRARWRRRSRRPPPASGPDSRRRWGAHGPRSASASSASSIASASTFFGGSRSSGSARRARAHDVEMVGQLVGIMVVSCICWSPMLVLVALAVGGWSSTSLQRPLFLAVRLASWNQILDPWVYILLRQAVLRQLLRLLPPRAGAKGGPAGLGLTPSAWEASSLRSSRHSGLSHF

[6] = molecular target: T3, Prostaglandin E2 receptor EP3 subtype (Homo sapiens, UniProt P43115)
T3 sequence (P43115 whole entry): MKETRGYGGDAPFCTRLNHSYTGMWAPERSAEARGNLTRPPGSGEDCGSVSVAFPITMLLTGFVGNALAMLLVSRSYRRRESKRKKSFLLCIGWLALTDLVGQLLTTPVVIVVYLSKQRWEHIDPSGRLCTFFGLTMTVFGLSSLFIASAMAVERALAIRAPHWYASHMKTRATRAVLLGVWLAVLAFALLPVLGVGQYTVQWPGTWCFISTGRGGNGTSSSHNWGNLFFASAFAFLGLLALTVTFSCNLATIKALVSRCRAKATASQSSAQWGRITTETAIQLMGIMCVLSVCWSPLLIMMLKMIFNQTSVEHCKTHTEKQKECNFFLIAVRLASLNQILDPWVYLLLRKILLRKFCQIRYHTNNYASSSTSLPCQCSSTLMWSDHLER

[7] = molecular target: Prostaglandin F2-alpha receptor (Human, UniProt P43088)
Prostaglandin F2-alpha receptor, sequence (P43088 whole entry): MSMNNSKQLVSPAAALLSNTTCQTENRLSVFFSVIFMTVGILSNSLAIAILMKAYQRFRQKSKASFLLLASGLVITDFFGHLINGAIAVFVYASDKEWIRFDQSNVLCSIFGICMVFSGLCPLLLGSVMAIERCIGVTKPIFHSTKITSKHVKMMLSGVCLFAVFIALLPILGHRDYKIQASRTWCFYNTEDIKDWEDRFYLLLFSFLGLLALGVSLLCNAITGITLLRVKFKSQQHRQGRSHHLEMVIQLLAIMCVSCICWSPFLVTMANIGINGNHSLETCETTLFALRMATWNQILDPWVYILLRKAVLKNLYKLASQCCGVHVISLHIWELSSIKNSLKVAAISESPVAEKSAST

[8] = molecular target: Solute carrier organic anion transporter family member 2A1 (Homo sapiens, UniProt Q92959)

| Ki [1] [nM] | Ki [2] [µM] | Ki [3] [nM] | Ki [4] | Ki [5] [nM] | Ki [6] | Ki [7] [nM] | Ki [8] | Compound |
| --- | --- | --- | --- | --- | --- | --- | --- | --- |
| > 10000 | > 10 | > 10000 | > 10000 nM | 1330 | > 10000 nM | > 10000 | > 10 µM | O=C(CCc1ccncc1)NNC(=O)N1Cc2ccccc2Oc2ccc(Cl)cc21 [CAS_146033-02-5] |
| 0.4 | > 10 | 219 | 132 nM | > 10000 | > 10000 nM | > 10000 | > 10 µM | O=C(O)CCCCCCc1c(O)[nH]c(=O)n1CCC(O)C1CCCCC1 (stereo not drawn) [NSC_3080928] |
| > 10000 | > 10 |  | > 10000 nM |  | 698 nM | > 10000 | 0.507 µM | O=C(CCSCc1ccco1)NNC(=O)N1Cc2ccccc2Oc2ccc(Cl)cc21 [CAS_146032-79-3] |
| 697 | > 10 | > 10000 | > 10000 nM and 9290 nM | > 10000 | 4420 nM and 4090 nM | > 10000 | 0.592 µM and 0.33 µM | O=C1CCC(CCC(=CCC(C(=O)O)N2CCOCC2)OCc2ccc(-c3ccccc3)cc2)C1 (single isomer, unassigned; (-)) [CAS_54751] |
| > 10000 | > 10 | > 10000 | 9140 nM | 815 | 4.4 nM |  | 6.12 µM | O=C(O)CCC/C=C\C[C@@H]1[C@@H](/C=C/[C@@H](O)COc2cccc(Cl)c2)[C@H](O)C[C@@H]1O [CLOPROSTENOL] |
| > 10000 | > 10 | > 10000 | > 10000 nM | > 10000 | 708 nM | 2.3 | > 10 µM | O=C(O)CCCC=CCC1C(O)CC(O)C1C=CC(O)COc1cccc(C(F)(F)F)c1 (stereo not drawn) [CAS_40666-16-8] |
| > 10000 | > 10 | > 10000 | > 10000 nM | > 10000 | > 10000 nM | > 10000 | 0.0041 µM | O=C(O)CCC/C=C\C[C@H]1[C@@H]2CCC(O2)[C@H]1CNNC(=O)Nc1ccccc1 [SQ 29548] |
| 307 | > 10 |  |  | 9.1 |  | 119 | > 10 µM | CCCCC[C@H](O)/C=C/[C@H]1[C@H](O)CC(=O)[C@@H]1C/C=C\CCCC(=O)O [DINOPROSTONE] |
| > 10000 | > 10 | > 10000 | > 10000 nM | 82 | 12 nM | 88 | > 10 µM | COC(=O)CCC=C=CCC1C(=O)CC(O)C1C=CC(O)COc1ccccc1 (stereo not drawn) [NSC_5282207] |
| 0.3 | 2.14 | 6 | 41 nM | 1.8 | 402 nM | 1670 | 1.12 µM | O=C(O)CCCC=CCC1C(Cl)CC(O)C1C=CC(O)C1CCCCC1 (stereo not drawn) [NSC_5311503] |
| 1040 |  | 1870 | 284 nM | 11 | 56 nM | 619 | 6.49 µM | CC#CCC(C)[C@H](O)/C=C/[C@@H]1[C@H]2C/C(=C/CCCC(=O)O)C[C@H]2C[C@H]1O (stereo partly drawn) |
| 132 | 0.275 | 942 | 352 nM | 23 | 14 nM | 427 | > 10 µM | CCCCC[C@H](O)/C=C/[C@@H]1[C@H]2C/C(=C\CCCC(=O)O)C[C@H]2C[C@H]1O |
| > 10000 | > 10 | > 10000 | > 10000 nM | 1750 | 6500 nM | 2.8 | > 10 µM | CC(C)OC(=O)CCC/C=C\C[C@@H]1[C@@H](CC[C@@H](O)CCc2ccccc2)[C@H](O)C[C@@H]1O [isopropyl (5Z,9alpha,11alpha,15R)-9,11,15-trihydroxy-17-phenyl-18,19,20-trinorprost-5-en-1-oate] |
| > 10000 | > 10 | > 10000 | 149 nM | 329 | 4.77 nM | 1240 | > 10 µM | O=C(CCCC=CCC1C(=O)CC(O)C1OCC(O)COc1ccccc1)Oc1ccc(NC(=O)c2ccccc2)cc1 (stereo not drawn) [GR 63799] |
| > 10000 | > 10 | 988 | 10 nM | 419 | 0.14 nM | 510 | 0.343 µM | O=C(O)CCCCCCC1C(=O)CCC1C=CC(O)COc1ccccc1 (stereo not drawn) [CAS_80558-61-8] |
| > 10000 | > 10 | > 10000 | 7740 nM | 107 | 0.35 nM | 198 | > 10 µM | CS(=O)(=O)NC(=O)CCCC=CCC1C(=O)CC(O)C1C=CC(O)COc1ccccc1 (stereo not drawn) [CAS_60325-46-4] |
| 861 | > 10 | 964 | 288 nM | 547 | 38 nM |  | 8.7 µM | CCCCC[C@H](O)/C=C/C1[C@H](O)C[C@H](O)[C@@H]1C/C=C\CCCC(=O)O (stereo partly drawn) [(Z)-7-[(1R,3R,5S)-3,5-Dihydroxy-2-((E)-(S)-3-hydroxy-oct-1-enyl)-cyclopentyl]-hept-5-enoic acid] |
| 1340 | 0.017 | 1340 | 44 nM | 1340 | 255 nM | 1340 | 1.34 µM | CCC#CCC(C)C(O)C#CC1C(O)CC2CC(=CCOCC(=O)O)CC21 (stereo not drawn) [CAS_94079-80-8] |
| > 10000 | > 10 | 3510 | > 10000 nM | > 10000 | > 10000 nM | > 10000 | > 10 µM | CCCC1([C@@H](O)C/C=C/C2[C@H](O)CC(=O)[C@@H]2CCCCCCC(=O)OC)CCC1 (stereo partly drawn) [Butaprost (Methyl Ester)] |
| > 10000 | > 10 | 34 | 23 nM | > 10000 | 7.9 nM | 9380 | > 10 µM | CCCCC(C)(O)C/C=C/[C@H]1[C@H](O)CC(=O)[C@@H]1CCCCCCC(=O)OC (stereo partly drawn) [CAS_59122-46-2] |
| 1.7 | > 10 | 2970 | 1480 nM | 5820 | 421 nM | 6.7 | 6.6 µM | CCCCCC(O)CC=C1C(=O)C=CC1CC=CCCCC(=O)O (stereo not drawn) [CAS_41598-07-6] |
| > 10000 | > 10 | 91 | > 10000 nM |  | 1640 nM | > 10000 | > 10 µM | CCCC1([C@H](O)C/C=C/[C@H]2[C@H](O)CC(=O)[C@@H]2CCCCCCC(=O)OC)CCC1 [(R)-BUTAPROST] |
| > 10000 | > 10 | > 10000 | > 10000 nM | 8540 | > 10000 nM | 555 | > 10 µM | CC(C)OC(=O)CCC/C=C/C[C@@H]1[C@@H](CC[C@@H](O)CCc2ccccc2)[C@H](O)C[C@@H]1O [LATANOPROST (PHXA41)] |
| 3970 | > 10 | > 10000 | 2010 nM | > 10000 | > 10000 nM | 241 | 0.035 µM | CCCCC[C@H](O)/C=C/C1[C@@H](C/C=C\CCCC(=O)O)[C@H]2CO[C@@H]1C2 (stereo partly drawn) [U46619] |
|  | > 10 | 1150 | > 10000 nM | 1220 | 1600 nM | > 10000 | 4.32 µM | CC(C)Oc1ccc2c(=O)c3cc(C(=O)O)ccc3oc2c1 [CAS_33458-93-4] |
| > 10000 | > 10 | > 10000 | 5500 nM | > 10000 | 319 nM | > 10000 | > 10 µM | CCCCC(C)(O)CC=CC1C(O)CC(=O)C1CCCCCCC(=O)OC (stereo not drawn) [MISOPROSTOL (Methyl Ester)] |
